# Laboratory results taken from US20220160739A1, “METHODS FOR TREATING SUBJECTS WITH CHRONIC KIDNEY DISEASE” (Janssen Pharmaceutica NV, priority 2019, published 2022).
# Assays:
# [1] = test system: patients with type 2 diabetes mellitus (T2DM), Stage 2 or 3 chronic kidney disease (CKD) and macroalbuminuria; assay: Randomized, double-blind, placebo-controlled study of canagliflozin: efficacy (renal and CV endpoints, HbA1c, body weight, blood pressure); type: in vivo, human
# Source text: (§1) This was a randomized, double-blind, event-driven, placebo-controlled, parallel-group, 2-arm, multicenter study to evaluate the effects of canagliflozin relative to placebo on progression to doubling of serum creatinine, end-stage kidney disease (ESKD), renal or cardiovascular (CV) death in patients with type 2 diabetes mellitus (T2DM), Stage 2 or 3 chronic kidney disease (CKD) and macroalbuminuria, who were receiving standard of care including a maximum tolerated labeled daily dose of an angiotensin-converting enzyme inhibitor (ACEi) or angiotensin receptor blocker (ARB). […] The safety objective was to assess the overall safety and tolerability of canagliflozin.
# Randomization included a 1:1 ratio to canagliflozin 100 mg or matching placebo, stratified by screening estimated glomerular filtration rate (eGFR) [≥30 to less than 45, ≥45 to less than 60, ≥60 to less than 90 mL/min/1.73 m^2]. The primary efficacy composite endpoint was the time to the first occurrence of doubling of serum creatinine, ESKD, and renal or CV death. The major secondary efficacy endpoints (tested in the following hierarchical order) included: • Composite of CV death and hospitalized heart failure • Composite of CV death, non-fatal MI, and non-fatal stroke (i.e., 3-point “MACE”) • Hospitalized heart failure • Composite of doubling of serum creatinine, ESKD, and renal death • CV death • All-cause death • Composite of CV death, non-fatal MI, non-fatal stroke, hospitalized heart failure, and hospitalized unstable angina
# A planned interim analysis was conducted at 413 primary endpoints and the IDMC subsequently recommended to stop the study early for efficacy based on pre-specified stopping criteria.
# The primary analysis was performed in the Intent-To-Treat (ITT) analysis set (i.e., all randomized subjects through end of study) using a stratified Cox proportional hazard model including treatment as the explanatory variable and stratified by screening eGFR. Secondary endpoints were similarly analyzed.
# As a result of stopping at the interim analysis, the primary endpoint was tested at a two-sided significance level of 0.022 based on the alpha spending function, whereas secondary endpoints were tested at 0.038.
# Analyses were performed to assess the impact of adjusting for postbaseline measurements of HbA1c and systolic blood pressure in the primary efficacy analysis. A series of proportional hazard regression models which included postbaseline HbA1c and systolic blood pressure measurements as time-varying covariates were fit. Because changes in HbA1c have a delayed effect on cardiovascular risk, several models were constructed. In each model, HbA1c was evaluated first using the single coincident value, a single lagged value, and then as a running mean average value. Single coincident systolic blood pressure measurements were used for all analyses.
# [2] = test system: patients with type 2 diabetes mellitus (T2DM), Stage 2 or 3 chronic kidney disease (CKD) and macroalbuminuria; assay: Randomized, double-blind, placebo-controlled study of canagliflozin: safety and tolerability (adverse events); type: in vivo
# Source text: as §1, with “canagliflozin. […]” for “canagliflozin.”
# Treatment-emergent safety analyses and summaries were presented using the On-Treatment analysis set (i.e., all treated subjects through 30 days after last dose), whereas analyses of amputation, fracture, and malignancy were performed using the On-Study analysis set (i.e., all treated subjects through end of study).
# Safety analyses were performed using either the On-Treatment analysis set (treated subjects up to 30 days of last dose) or the On-Study analysis set (treated subjects through the end of study).
# [3] = canagliflozin compared to placebo, ITT
# [4] = canagliflozin minus placebo, end of treatment
# [5] = Cox proportional hazards model, On-Study
# [6] = denominators restricted to females
# [7] = renal related AE by preferred term
structure (smiles),measurement,setting,value
Cc1ccc(C2OC(CO)C(O)C(O)C2O)cc1Cc1ccc(-c2ccc(F)cc2)s1 (stereo not drawn) [Canagliflozin],HbA1c placebo-subtracted difference of LS means for change from baseline,[1]; 30-45 eGFR stratum,0.03
same,HbA1c placebo-subtracted difference of LS means for change from baseline,[1]; 45-60 eGFR stratum,−0.18
same,HbA1c placebo-subtracted difference of LS means for change from baseline,[1]; 60 to <90 eGFR stratum,−0.21
same,"Kaplan-Meier plot, primary composite endpoint: initial separation","[1]; FIG. 1, maintained across the entire study",52 Week
same,"Treatment HR for the primary efficacy outcome, adjusted for time-varying HbA1c and systolic blood pressure",[1]; HbA1c Concurrent in the Cox model,0.724
same,"Treatment HR for the primary efficacy outcome, adjusted for time-varying HbA1c and systolic blood pressure",[1]; HbA1c Lagged By 1 Visit,0.737
same,"Treatment HR for the primary efficacy outcome, adjusted for time-varying HbA1c and systolic blood pressure",[1]; HbA1c Running Mean,0.740
same,All-Cause Mortality (%),[1]; ITT,(7.6) %
same,All-Cause Mortality EVRT,[1]; ITT,29.04 per 1000 patient-years
same,All-Cause Mortality n/N,[1]; ITT,168/2202
same,Composite of CV Death/NFMI/NF Stroke/HHF/HUSA (%),[1]; ITT,(12.4) %
same,Composite of CV Death/NFMI/NF Stroke/HHF/HUSA EVRT,[1]; ITT,49.35 per 1000 patient-years
same,Composite of CV Death/NFMI/NF Stroke/HHF/HUSA n/N,[1]; ITT,273/2202
same,Composite of DoSC/ESKD/Renal Death (%),[1]; ITT,(6.9) %
same,Composite of DoSC/ESKD/Renal Death EVRT,[1]; ITT,26.99 per 1000 patient-years
same,Composite of DoSC/ESKD/Renal Death n/N,[1]; ITT,153/2202
same,HHF (%),[1]; ITT,(4.0) %
same,HHF (hospitalized heart failure) n/N,[1]; ITT,89/2202
same,HHF EVRT,[1]; ITT,15.65 per 1000 patient-years
same,MACE (%),[1]; ITT,(9.9) %
same,MACE EVRT,[1]; ITT,38.71 per 1000 patient-years
same,MACE n/N,"[1]; ITT, CV death, non-fatal MI, non-fatal stroke",217/2202
same,Composite of CV Death/HHF (%),"[1]; ITT, canagliflozin 100 mg",(8.1) %
same,Composite of CV Death/HHF EVRT,"[1]; ITT, canagliflozin 100 mg",31.47 per 1000 patient-years
same,Composite of CV Death/HHF n/N,"[1]; ITT, canagliflozin 100 mg",179/2202
same,Doubling of Serum Creatinine EVRT,"[1]; ITT, canagliflozin 100 mg",20.73 per 1000 patient-years
same,ESKD EVRT,"[1]; ITT, canagliflozin 100 mg",20.37 per 1000 patient-years
same,Primary Composite Endpoint EVRT (event rate),"[1]; ITT, canagliflozin 100 mg",43.21 per 1000 patient-years
same,Renal Death EVRT,"[1]; ITT, canagliflozin 100 mg",0.35 per 1000 patient-years
same,"Primary composite endpoint HR, supportive analysis","[1]; On-Treatment analysis set, vs placebo",0.64
same,Doubling of Serum Creatinine HR (95% CI),[1]; [3],"0.60 (0.48, 0.76)"
same,ESKD HR (95% CI),[1]; [3],"0.68 (0.54, 0.86)"
same,"Body weight least-squares mean difference, change from baseline",[1]; [4],−1.72%
same,"HbA1c least-squares mean difference, change from baseline",[1]; [4],−0.13%
same,"Systolic blood pressure least-squares mean difference, change from baseline",[1]; [4],−2.81 mmHg
same,Reduction of risk of the primary composite endpoint,"[1]; compared to placebo, ITT",30%
same,Reduction of risk of certain primary endpoints,[1]; on top of current standard of care that includes ACEi or ARB therapy,about 25%
same,"Exploratory hard composite of ESKD, renal death and CV death HR",[1]; vs placebo,0.73
same,Composite of CV death and hospitalized heart failure HR,"[1]; vs placebo, ITT",0.69
same,Composite of CV death and hospitalized heart failure risk reduction,"[1]; vs placebo, ITT",31%
same,"Composite of doubling of serum creatinine, ESKD, and renal death HR","[1]; vs placebo, ITT",0.66
same,"Composite of doubling of serum creatinine, ESKD, and renal death risk reduction","[1]; vs placebo, ITT",34%
same,Hospitalization for heart failure HR,"[1]; vs placebo, ITT",0.61
same,Hospitalization for heart failure risk reduction,"[1]; vs placebo, ITT",39%
same,MACE HR,"[1]; vs placebo, ITT",0.80
same,MACE risk reduction,"[1]; vs placebo, ITT",20%
same,Adjudicated fracture: HR (vs. Placebo),[2]; [5],0.98
same,Atraumatic lower limb amputation: HR (vs. Placebo),[2]; [5],1.11
same,Final vital status: Alive n (%),"[2]; ITT analysis set, N = 2202",2030 (92.2)
same,Final vital status: Died n (%),"[2]; ITT analysis set, N = 2202",168 (7.6)
same,Adjudicated fracture: IRD (minus Placebo),[2]; On-Study,−0.29 /1000 subject-years
same,Adjudicated fracture: incidence rate,[2]; On-Study,11.80 /1000 subject-years
same,Adjudicated fracture: number of events,[2]; On-Study,80
same,Atraumatic lower limb amputation: IRD (minus Placebo),[2]; On-Study,1.16 /1000 subject-years
same,Atraumatic lower limb amputation: incidence rate,[2]; On-Study,12.34 /1000 subject-years
same,Atraumatic lower limb amputation: number of events,[2]; On-Study,87
same,Adjudicated fracture: subjects with any event (%),"[2]; On-Study, N = 2200",(3.0) %
same,Atraumatic lower limb amputation: subjects with any event (%),"[2]; On-Study, N = 2200",(3.2) %
same,Adverse Events Leading to Discontinuation N (%),"[2]; On-Treatment, N = 2200",267 (12.1)
same,Adverse Events Related to Study Drug N (%),"[2]; On-Treatment, N = 2200",469 (21.3)
same,Adverse Events Related to Study Drug and Leading to Discontinuation N (%),"[2]; On-Treatment, N = 2200",75 (3.4)
same,Any Adverse Events N (%),"[2]; On-Treatment, N = 2200",1784 (81.1)
same,Death (fatal adverse event) N (%),"[2]; On-Treatment, N = 2200",109 (5.0)
same,Renal related adverse events: total subjects with the AEs (%),"[2]; On-Treatment, N = 2200",(13.2) %
same,Serious Adverse Events Leading to Discontinuation N (%),"[2]; On-Treatment, N = 2200",134 (6.1)
same,Serious Adverse Events N (%),"[2]; On-Treatment, N = 2200",737 (33.5)
same,Serious Adverse Events Related to Study Drug N (%),"[2]; On-Treatment, N = 2200",62 (2.8)
same,Serious Adverse Events Related to Study Drug and Leading to Discontinuation N (%),"[2]; On-Treatment, N = 2200",16 (0.7)
same,Renal related adverse events: incidence rate,[2]; Table 8,57.12 per 1000 person-years
same,Overall incidence rate of neoplasms,[2]; between the treatment groups,low and balanced between the treatment groups
same,Adjudicated diabetic ketoacidosis (DKA) IRD,[2]; canagliflozin compared to placebo,"1.73 per 1,000 subject-years"
same,Adjudicated RCC incidence rate,[2]; canagliflozin group,0.17 per 1000 patient-years
same,Adjudicated renal cell carcinoma (RCC): subjects,[2]; canagliflozin group,1 subject
same,Adjudicated renal cell carcinoma (RCC): subjects (%),[2]; canagliflozin group,< 0.1%
same,Adverse event cited as reason for treatment discontinuation,[2]; canagliflozin group,12%
same,Female breast cancer incidence rate,[2]; canagliflozin group,4.08 per 1000 patient-years
same,Hyperkalemia adverse events incidence rate,[2]; canagliflozin group,"29.74 per 1,000 subject-years"
same,Renal-related adverse events: incidence rate,[2]; canagliflozin group,"57.12 per 1,000 subject-years"
same,Volume depletion adverse events incidence rate,[2]; canagliflozin group,"28.36 per 1,000 subject-years"
same,"Malignancy (Breast) IRD, Canagliflozin vs. Placebo",[2]; [6],2.49 /1000 subject years
same,Malignancy (Breast) n (%),[2]; [6],8 (1.1)
same,Malignancy (Breast) rate,[2]; [6],4.08 /1000 subject years
same,Adverse Events Leading to Discontinuation rate,[2]; exposure adjusted,52.59 /1000 pt-yrs
same,Adverse Events Related to Study Drug and Leading to Discontinuation rate,[2]; exposure adjusted,14.77 /1000 pt-yrs
same,Adverse Events Related to Study Drug rate,[2]; exposure adjusted,92.38 /1000 pt-yrs
same,Death (fatal adverse event) rate,[2]; exposure adjusted,21.47 /1000 pt-yrs
same,Serious Adverse Events Leading to Discontinuation rate,[2]; exposure adjusted,26.39 /1000 pt-yrs
same,Serious Adverse Events Related to Study Drug and Leading to Discontinuation rate,[2]; exposure adjusted,3.15 /1000 pt-yrs
same,Serious Adverse Events Related to Study Drug rate,[2]; exposure adjusted,12.21 /1000 pt-yrs
same,Serious Adverse Events rate,[2]; exposure adjusted,145.17 /1000 pt-yrs
same,Any Adverse Events rate,"[2]; exposure adjusted, On-Treatment",351.40 /1000 pt-yrs
same,Reports of pheochromocytoma or testicular cell cancer,[2]; in the study,no reports
same,"Malignancy (Bladder) IRD, Canagliflozin vs. Placebo",[2]; post-randomization,0.16 /1000 subject years
same,Malignancy (Bladder) rate,[2]; post-randomization,1.73 /1000 subject years
same,Malignancy (Bladder) n (%),"[2]; post-randomization, N = 2200",10 (0.5)
same,Acute kidney injury (%),[2]; [7],(3.9) %
same,Acute kidney injury n,[2]; [7],86
same,Anuria (%),[2]; [7],(<0.1) %
same,Anuria n,[2]; [7],1
same,Azotemia n,[2]; [7],0
same,Blood Creatinine increased (%),[2]; [7],(6.5) %
same,Blood Creatinine increased n,[2]; [7],144
same,Blood urea increased (%),[2]; [7],(1.0) %
same,Blood urea increased n,[2]; [7],21
same,Glomerular filtration rate decreased (%),[2]; [7],(3.1) %
same,Glomerular filtration rate decreased n,[2]; [7],68
same,Nephropathy toxic n,[2]; [7],0
same,Renal failure (%),[2]; [7],(0.5) %
same,Renal failure n,[2]; [7],10
same,Renal impairment (%),[2]; [7],(2.3) %
same,Renal impairment n,[2]; [7],50
